Assay results taken from patent US20080064668A1, “1,3-Diacylated, 26,27-Alkyl/Haloakyl Vitamin D3 Compounds and Methods of Use Thereof” (BioXell S.p.A., priority 2003, published 2008).
“Also recorded” adds a separate entry of the source.

Legend:
RT4 = test: Proliferation assay using bladder cancer cell lines, RT4; type: cell-based, human; conditions: 72 h culture, CyQuant proliferation assay
Description: (§1) Bladder cancer cell lines (T24, RT112, HT1376 and RT4 are human bladder cancer cell lines; NHEK are normal human keratinocytes) were obtained from the European Collection of Cell Cultures (Salisbury, UK). Cells were plated at 3×10^3 per well, in flat bottomed 96-well plates in 100 μl of DMEM medium containing: 5% Fetal Clone I, 50 μg/l gentamicin, 1 mM sodium pyruvate and 1% non-essential amino acids. After culturing for 24 h at 37° C. in 5% CO2, to allow cells to adhere to the plates, VDR ligands (compounds (2), (4), (5) and other vitamin D3 analogs as shown in Table 4) were added at concentrations ranging from 100 μM to 0.3 μM in 100 μl of above-mentioned complete medium. After a further 72 h of culture, cell proliferation was measured using a fluorescence-based proliferation assay kit. (CyQuant Cell Proliferation Assay Kit, Molecular Probes, Eugene, Oreg., USA). The IC50 was calculated from the regression curve of the titration data.

RT112 = test: Proliferation assay using bladder cancer cell lines, RT112; type: cell-based, human; conditions: 72 h culture, CyQuant proliferation assay
Description: as §1

ECV = test: Proliferation assay using bladder cancer cell lines, ECV; type: cell-based, human; conditions: 72 h culture, CyQuant proliferation assay
NHEK = test: Proliferation assay, NHEK normal human keratinocytes; type: cell-based; conditions: 72 h culture, CyQuant proliferation assay
Description: as §1

HT 1376 = test: Proliferation assay using bladder cancer cell lines, HT1376; type: cell-based, human; conditions: 72 h culture, CyQuant proliferation assay
Description: as §1

[1] = Determination of Maximum Tolerated Dose (MTD); conditions: for MTD at 4 days: female, C57BL/6, mouse, in vivo, po; for MTD compared with the corresponding dihydroxy (parent) compound: versus (1) or (3)
Description: The maximum tolerated dose of the vitamin D3 compounds of the invention were determined in eight week-old female C57BL/6 mice (3 mice/group) dosed orally (0.1 ml/mouse) with various concentrations of Vitamin D3 analogs daily for four days. Analogs were formulated in miglyol for a final concentration of 0.01, 0.03, 0.1 0.3, 1, 3, 10, 30, 100 and 300 μg/kg when given at 0.1 ml/mouse p.o. daily. Blood for serum calcium assay was drawn by tail bleed on day five, the final day of the study.

IFN-γ production = IFN-γ production in the mixed leukocyte response (MLR); type: cell-based; conditions: 120 h; allogeneic PBMC from 2 donors, 5 days, ELISA; read-out: INF-γ IC50
Description: Immature dendritic cells (DC) were prepared as described in Romani, N. et al. (Romani, N. et al. (1996) J. Immunol. Meth. 196:137). IFN-γ production by allogeneic T cell activation in the mixed leukocyte response (MLR) was determined as described in Penna, G., et al., J Immunol., 164: 2405-2411 (2000).
Briefly, peripheral blood mononuclear cells (PBMC) were separated from buffy coats by Ficoll gradient and the same number (3×10^5) of allogeneic PBMC from 2 different donors were co-cultured in 96-well flat-bottom plates. The vitamin D3 compounds were added to each of the cultures.

Human BPH cells = test: BPH cell proliferation assay (testosterone-induced); type: cell-based; conditions: 48 h
Description: Human BPH cells, prepared, maintained and used as previously described in Crescioli C, et al. Journal of Clinical and Endocrinology Metabolism (2000) 85 p 2576-2583, were obtained from prostate tissues derived from 5 patients, who underwent suprapubic adenomectomy for BPH, after informed consent and approval by the Local Ethical Committee.
For all cell proliferation assays, 4×10^4 BPH cells were seeded onto 12-well plates in their growth medium, starved in red- and serum-free medium containing 0.1% BSA for 24 h, and then treated with specific stimuli for 48 h. Cells in phenol red- and serum-free medium containing 0.1% BSA were used as controls. Thereafter, cells were trypsinized, and each experimental point was derived from hemocytometer counting, averaging at least six different fields for each well, as previously reported (see Crescioli C, et al. Journal of Clinical and Endocrinology Metabolism (2000) 85 p 2576-2583).
Growth assays were also carried out using a fixed concentration of androgens (10 nM) with or without vitamin-D analogs (1 nM, 10 nM) or the anti-androgens finasteride (F, 1 nM) and cyproterone acetate (Cyp, 100 nM. Growth assays were also performed using a fixed concentration of T (10 nM) or GFs (10 ng/ml) with or without the vitamin-D analogs. (10 nM).
In the same experiment, each experimental point was repeated in triplicate or quadruplicate and experiments were performed 3 times. Results are expressed as % variation (mean±SEM) over the maximal T or GF-induced stimulation.

[2] = MTD in CD1 mouse (highest non-hypercalcemic dose); conditions: in vivo

Row | SMILES | IC50 (RT4) [µM] | IC50 (RT112) [µM] | IC50 (ECV) [µM] | IC50 (NHEK) [µM] | IC50 (HT 1376) [µM] | MTD (mice) ([1]; female C57BL/6 mice, p.o. daily for four days, highest dose without hypercalcemia (serum calcium >10.7 mg/dl)) [µg/kg] | MTD at 4 days [1] [µg/kg] | MTD compared with the corresponding dihydroxy (parent) compound [1] | IC50 (RT4; Homo sapiens, RT-4, 72 h) [µM] | IC50 (RT112; Homo sapiens, RT-112, 72 h) [µM] | IC50 (ECV; Homo sapiens) [µM] | IC50 (NHEK; Homo sapiens, NHEK) [µM] | IC50 (IFN-γ production) [nM] | IC50 (HT 1376; Homo sapiens, HT-1376) [µM] | IC50 (Human BPH cells) [µM] | MTD [2] [µg/kg]
1 | CC(C/C=C\C(O)(C(F)(F)F)C(F)(F)F)C1=CCC2C(=CC=C3CC(O)CC(O)C3)CCCC12C (stereo not drawn) [(1), 1,25-dihydroxy-16,23Z-diene-26,27-hexafluoro-19-nor-cholecalciferol, reference compound] | 20 | 24 | 58.7 | 4.4 | 56 | – | – | – | – | – | – | – | – | – | – | –
2 | CC(CC#CC(O)(C(F)(F)F)C(F)(F)F)C1=CCC2C(=CC=C3CC(O)CC(O)C3)CCCC12C (stereo not drawn) [(3), 1,25-dihydroxy-16-ene-23-yne-26,27-hexafluoro-19-nor-cholecalciferol, reference compound] | – | – | – | – | – | 0.3 | – | – | – | – | – | – | – | – | – | –
3 | CC(=O)OC1C/C(=C/C=C2\CCC[C@]3(C)C(C(C)CC#CC(O)(C(F)(F)F)C(F)(F)F)=CCC23)C[C@@H](OC(C)=O)C1 (stereo partly drawn) [(4), 1,3-Di-O-acetyl-1,25-Dihydroxy-16-ene-23-yne-26,27-hexafluoro-19-nor-cholecalciferol] | – | – | – | – | – | – | 10 | significantly higher; also recorded: considerably greater | 9 | 15 | 29 | 0.8 | 0.525 | > 100 | – | –
4 | CC(=O)OC1C/C(=C/C=C2\CCC[C@]3(C)C(C(C)CC#CC(OC(C)=O)(C(F)(F)F)C(F)(F)F)=CCC23)C[C@@H](OC(C)=O)C1 (stereo partly drawn) [(5), 1,3,25-Tri-O-acetyl-1,25-Dihydroxy-16-ene-23-yne-26,27-hexafluoro-19-nor-cholecalciferol] | – | – | – | – | – | – | 3 | significantly higher; also recorded: considerably greater | 7 | 13 | 32 | 25.6 | 0.499 | > 100 | – | –
5 | C=C1/C(=C\C=C2/CCC[C@]3(C)C(C(C)C/C=C/C(C)(C)O)=CCC23)CC(OC(C)=O)C[C@@H]1OC(C)=O (stereo partly drawn) [(9), 1,3-Di-O-acetyl-1,25-dihydroxy-16,23E-diene-cholecalciferol] | – | – | – | – | – | – | – | – | 82 | 14 | 58.7 | 5.1 | – | > 100 | 0.00912 | 3
6 | C=C1/C(=C\C=C2/CCC[C@]3(C)C(C(C)CCCC(C)(C)O)=CCC23)CC(OC(C)=O)C[C@@H]1OC(C)=O (stereo partly drawn) [(11), 1,3-Di-O-acetyl-1,25-dihydroxy-16-ene-cholecalciferol] | – | – | – | – | – | – | – | – | 75 | 18 | 59.9 | 5 | – | > 100 | 0.000759 | 1
7 | C=C1/C(=C\C=C2/CCC[C@]3(C)C(C(C)CC#CC(OC(C)=O)(C(F)(F)F)C(F)(F)F)=CCC23)CC(OC(C)=O)C[C@@H]1OC(C)=O (stereo partly drawn) [(13), 1,3,25-Tri-O-acetyl-1,25-dihydroxy-16-ene-23-yne-26,27-hexafluoro-cholecalciferol] | – | – | – | – | – | – | 3 | – | 95 | 17 | > 100 | 19.5 | 0.0401 | – | – | –
8 | C=C1/C(=C\C=C2/CCC[C@]3(C)C(C(C)C/C=C/[C@@](C)(O)C(F)(F)F)=CCC23)CC(OC(C)=O)C[C@@H]1OC(C)=O (stereo partly drawn) [(16), 1,3-Di-O-acetyl-1,25-dihydroxy-16,23E-diene-25R,26-trifluoro-cholecalciferol] | – | – | – | – | – | – | – | – | 16 | 2 | 76.6 | 3.1 | – | > 100 | – | –
9 | CC(=O)OC1C/C(=C/C=C2\CCC[C@]3(C)C(C(C)CCCC(C)(C)O)=CCC23)C[C@@H](OC(C)=O)C1 (stereo partly drawn) [(18), 1,3-Di-O-acetyl-1,25-dihydroxy-16-ene-19-nor-cholecalciferol] | – | – | – | – | – | – | – | – | 8 | 1 | 27.9 | 5.8 | – | 96 | 2.24e-05 | 3
10 | CC(=O)OC1C/C(=C/C=C2\CCC[C@]3(C)C(C(C)CC#CC(C)(C)O)=CCC23)C[C@@H](OC(C)=O)C1 (stereo partly drawn) [(20), 1,3-Di-O-Acetyl-1,25-dihydroxy-16-ene-23-yne-19-nor-cholecalciferol] | – | – | – | – | – | – | – | – | 9 | 1 | 26.7 | 6.7 | – | > 100 | – | 30
11 | CCC(O)(C#CCC(C)C1=CCC2/C(=C/C=C3/CC(OC(C)=O)C[C@H](OC(C)=O)C3)CCC[C@]12C)CC (stereo partly drawn) [(22), 1,3-Di-O-acetyl-1,25-dihydroxy-16-ene-23-yne-26,27-bishomo-19-nor-cholecalciferol] | – | – | – | – | – | – | 100 | – | 9 | 7 | 81.7 | 4.7 | 0.0253 | > 100 | – | –
12 | CC(=O)OC1C/C(=C/C=C2\CCC[C@@]3(C)C2CCC3C2(CC#CC(C)(C)O)CC2)C[C@@H](OC(C)=O)C1 (stereo partly drawn) [(24), 1,3-Di-O-acetyl-1,25-dihydroxy-20-cyclopropyl-23-yne-19-nor-cholecalciferol] | – | – | – | – | – | – | – | – | 7 | 18 | 21.5 | 6.8 | – | > 100 | – | –
13 | CC(=O)OC1C/C(=C/C=C2\CCC[C@@]3(C)C2CCC3C2(C/C=C/C(O)(C(F)(F)F)C(F)(F)F)CC2)C[C@@H](OC(C)=O)C1 (stereo partly drawn) [(31), 1,3-Di-O-acetyl-1,25-dihydroxy-20-cyclopropyl-23E-ene-26,27-hexafluoro-19-nor-cholecalciferol] | – | – | – | – | – | – | 0.3 | – | 9 | 7 | 24.3 | 0.9 | – | 68 | – | –
14 | CC(=O)OC1C/C(=C/C=C2\CCC[C@@]3(C)C2CCC3C2(C/C=C\C(O)(C(F)(F)F)C(F)(F)F)CC2)C[C@@H](OC(C)=O)C1 (stereo partly drawn) [(33), 1,3-Di-O-acetyl-1,25-dihydroxy-20-cyclopropyl-23Z-ene-26,27-hexafluoro-19-nor-cholecalciferol] | – | – | – | – | – | – | – | – | 18 | 16 | > 100 | 0.9 | – | > 100 | – | –
15 | C=C1/C(=C\C=C2/CCC[C@@]3(C)C2CCC3C2(CCCC(C)(C)O)CC2)C[C@@H](OC(C)=O)C[C@@H]1OC(C)=O (stereo partly drawn) [(35), 1,3-Di-O-acetyl-1,25-dihydroxy-20-cyclopropyl-cholecalciferol] | – | – | – | – | – | – | 30 | – | 10 | 9 | 52.1 | 4.7 | – | 67 | 1260 | 30
16 | CC(=O)OC1C/C(=C/C=C2\CCC[C@]3(C)C(C4(CCCC(C)(C)O)CC4)=CCC23)C[C@@H](OC(C)=O)C1 (stereo partly drawn) [(37), 1,3-Di-O-acetyl-1α,25-dihydroxy-16-ene-20-cyclopropyl-19-nor-cholecalciferol] | – | – | – | – | – | – | 10 | – | 3 | 17.4 | – | – | 0.068 | – | – | –
17 | C=C1/C(=C\C=C2/CCC[C@]3(C)C(C4(CCCC(C)(C)O)CC4)=CCC23)CC(OC(C)=O)C[C@@H]1OC(C)=O (stereo partly drawn) [(39), 1,3-Di-O-acetyl-1α,25-hydroxy-16-ene-20-cyclopropyl-cholecalciferol] | – | – | – | – | – | – | 3 | – | 2.8 | 21.5 | – | – | 0.045 | – | – | –
